Test results as given in PMC7956587, “Molecular Docking Studies and Biological Evaluation of Berberine–Benzothiazole Derivatives as an Anti-Influenza Agent via Blocking of Neuraminidase” (International Journal of Molecular Sciences, 2021).

Test system: influenza A virus A/PR/8/34 (H1N1)
Test: In vitro antiviral bioassay (CPE reduction, SRB) in MDCK cells
Type: cell-based
Details: Influenza A virus, MDCK, 48 h
For COc1ccc2cc3[n+](cc2c1OCCCCCNc1nc2ccc(C(=O)O)cc2s1)CCc1cc2c(cc1-3)OCO2 [BBD 3], the IC50 was 35.9 ± 0.659 µg/mL. For COc1ccc2cc3[n+](cc2c1OCCCCCNc1nc2ccc(I)cc2s1)CCc1cc2c(cc1-3)OCO2 [BBD 9], the IC50 was 54.5 ± 1.75 µg/mL. In the case of COc1ccc2cc3[n+](cc2c1OCCCCCNc1nc2ccc([N+](=O)[O-])cc2s1)CCc1cc2c(cc1-3)OCO2 [BBD 2], the IC50 is reported as 30.9 ± 0.619 µg/mL. With COc1ccc2cc3[n+](cc2c1OCCCCCNc1nc2c(F)cc(F)cc2s1)CCc1cc2c(cc1-3)OCO2 [BBD 11] the IC50 was 27.2 ± 0.394 µg/mL.

Same assay, conditions: Therapeutic index, TI = CC50/IC50
With COc1ccc2cc3[n+](cc2c1OCCCCCNc1nc2ccc(C(=O)O)cc2s1)CCc1cc2c(cc1-3)OCO2 [BBD 3] the “TI A/PR/8/34 (H1N1)” value was 10.65. With COc1ccc2cc3[n+](cc2c1OCCCCCNc1nc2ccc(I)cc2s1)CCc1cc2c(cc1-3)OCO2 [BBD 9] the “TI A/PR/8/34 (H1N1)” value was 5.547. With COc1ccc2cc3[n+](cc2c1OCCCCCNc1nc2ccc([N+](=O)[O-])cc2s1)CCc1cc2c(cc1-3)OCO2 [BBD 2] the “TI A/PR/8/34 (H1N1)” value was 11.01. With COc1ccc2cc3[n+](cc2c1OCCCCCNc1nc2c(F)cc(F)cc2s1)CCc1cc2c(cc1-3)OCO2 [BBD 11] the “TI A/PR/8/34 (H1N1)” value was 17.19.

Test system: influenza A virus A/Vic/3/75 (H3N2)
Test: as above
Type: cell-based
Details: Influenza A virus, H3N2, MDCK, 48 h
In the case of COc1ccc2cc3[n+](cc2c1OCCCCCNc1nc2ccc(C(=O)O)cc2s1)CCc1cc2c(cc1-3)OCO2 [BBD 3], the IC50 is reported as 60.7 ± 1.06 µg/mL. Molecule COc1ccc2cc3[n+](cc2c1OCCCCCNc1nc2ccc(I)cc2s1)CCc1cc2c(cc1-3)OCO2 [BBD 9] has an IC50 of 54.2 ± 2.09 µg/mL. Work on COc1ccc2cc3[n+](cc2c1OCCCCCNc1nc2ccc([N+](=O)[O-])cc2s1)CCc1cc2c(cc1-3)OCO2 [BBD 2] yielded an IC50 of 52.2 ± 2.07 µg/mL. In the case of COc1ccc2cc3[n+](cc2c1OCCCCCNc1nc2c(F)cc(F)cc2s1)CCc1cc2c(cc1-3)OCO2 [BBD 11], the IC50 is reported as 48.4 ± 2.2 µg/mL.

Same assay, conditions: Therapeutic index, TI = CC50/IC50
In the case of COc1ccc2cc3[n+](cc2c1OCCCCCNc1nc2ccc(C(=O)O)cc2s1)CCc1cc2c(cc1-3)OCO2 [BBD 3], the “TI A/VIC/3/75 (H3N2)” value is reported as 6.303. With COc1ccc2cc3[n+](cc2c1OCCCCCNc1nc2ccc(I)cc2s1)CCc1cc2c(cc1-3)OCO2 [BBD 9] the “TI A/VIC/3/75 (H3N2)” value was 5.585. With COc1ccc2cc3[n+](cc2c1OCCCCCNc1nc2ccc([N+](=O)[O-])cc2s1)CCc1cc2c(cc1-3)OCO2 [BBD 2] the “TI A/VIC/3/75 (H3N2)” value was 6.525. For COc1ccc2cc3[n+](cc2c1OCCCCCNc1nc2c(F)cc(F)cc2s1)CCc1cc2c(cc1-3)OCO2 [BBD 11], the “TI A/VIC/3/75 (H3N2)” value was 9.655.

Test system: influenza B virus B/Lee/40
Test: as above
Type: cell-based
Details: Influenza B virus; MDCK cells, 50 TCID50, 48 h, mean ± S.D., triplicate
COc1ccc2cc3[n+](cc2c1OCCCCCNc1nc2ccc(C(=O)O)cc2s1)CCc1cc2c(cc1-3)OCO2 [BBD 3] showed an IC50 of 53.9 ± 1.36 µg/mL. COc1ccc2cc3[n+](cc2c1OCCCCCNc1nc2ccc(I)cc2s1)CCc1cc2c(cc1-3)OCO2 [BBD 9] gave an IC50 of 69.8 ± 2.57 µg/mL. In the case of COc1ccc2cc3[n+](cc2c1OCCCCCNc1nc2ccc([N+](=O)[O-])cc2s1)CCc1cc2c(cc1-3)OCO2 [BBD 2], the IC50 is reported as 61.7 ± 1.65 µg/mL. COc1ccc2cc3[n+](cc2c1OCCCCCNc1nc2c(F)cc(F)cc2s1)CCc1cc2c(cc1-3)OCO2 [BBD 11] gave an IC50 of 85.1 ± 3.74 µg/mL.

Same assay, conditions: Therapeutic index, TI = CC50/IC50
With COc1ccc2cc3[n+](cc2c1OCCCCCNc1nc2ccc(C(=O)O)cc2s1)CCc1cc2c(cc1-3)OCO2 [BBD 3] the “TI B/LEE/40” value was 7.105. For COc1ccc2cc3[n+](cc2c1OCCCCCNc1nc2ccc(I)cc2s1)CCc1cc2c(cc1-3)OCO2 [BBD 9], the “TI B/LEE/40” value was 4.331. For COc1ccc2cc3[n+](cc2c1OCCCCCNc1nc2ccc([N+](=O)[O-])cc2s1)CCc1cc2c(cc1-3)OCO2 [BBD 2], the “TI B/LEE/40” value was 5.516. For COc1ccc2cc3[n+](cc2c1OCCCCCNc1nc2c(F)cc(F)cc2s1)CCc1cc2c(cc1-3)OCO2 [BBD 11], the “TI B/LEE/40” value was 5.494.

Test system: influenza B virus B/Maryland/1/59
Test: as above
Type: cell-based
Details: Influenza B virus; MDCK cells, 50 TCID50, 48 h, mean ± S.D., triplicate; read-out: IC50 B/MARYLAND/1/59
Work on COc1ccc2cc3[n+](cc2c1OCCCCCNc1nc2ccc(C(=O)O)cc2s1)CCc1cc2c(cc1-3)OCO2 [BBD 3] yielded an IC50 of 56.4 ± 1.06 µg/mL. With COc1ccc2cc3[n+](cc2c1OCCCCCNc1nc2ccc(I)cc2s1)CCc1cc2c(cc1-3)OCO2 [BBD 9] the IC50 was 78.5 ± 2.31 µg/mL. COc1ccc2cc3[n+](cc2c1OCCCCCNc1nc2ccc([N+](=O)[O-])cc2s1)CCc1cc2c(cc1-3)OCO2 [BBD 2] gave an IC50 of 65.3 ± 1.88 µg/mL. Work on COc1ccc2cc3[n+](cc2c1OCCCCCNc1nc2c(F)cc(F)cc2s1)CCc1cc2c(cc1-3)OCO2 [BBD 11] yielded an IC50 of 98.3 ± 2.21 µg/mL.

Same assay, conditions: Therapeutic index, TI = CC50/IC50
With COc1ccc2cc3[n+](cc2c1OCCCCCNc1nc2ccc(C(=O)O)cc2s1)CCc1cc2c(cc1-3)OCO2 [BBD 3] the “TI B/MARYLAND/1/59” value was 6.784. With COc1ccc2cc3[n+](cc2c1OCCCCCNc1nc2ccc(I)cc2s1)CCc1cc2c(cc1-3)OCO2 [BBD 9] the “TI B/MARYLAND/1/59” value was 3.851. In the case of COc1ccc2cc3[n+](cc2c1OCCCCCNc1nc2ccc([N+](=O)[O-])cc2s1)CCc1cc2c(cc1-3)OCO2 [BBD 2], the “TI B/MARYLAND/1/59” value is reported as 5.212. In the case of COc1ccc2cc3[n+](cc2c1OCCCCCNc1nc2c(F)cc(F)cc2s1)CCc1cc2c(cc1-3)OCO2 [BBD 11], the “TI B/MARYLAND/1/59” value is reported as 4.75.

Target: influenza virus neuraminidase (Influenza A virus, UniProt P03468)
Sequence (P03468 whole entry, looked up): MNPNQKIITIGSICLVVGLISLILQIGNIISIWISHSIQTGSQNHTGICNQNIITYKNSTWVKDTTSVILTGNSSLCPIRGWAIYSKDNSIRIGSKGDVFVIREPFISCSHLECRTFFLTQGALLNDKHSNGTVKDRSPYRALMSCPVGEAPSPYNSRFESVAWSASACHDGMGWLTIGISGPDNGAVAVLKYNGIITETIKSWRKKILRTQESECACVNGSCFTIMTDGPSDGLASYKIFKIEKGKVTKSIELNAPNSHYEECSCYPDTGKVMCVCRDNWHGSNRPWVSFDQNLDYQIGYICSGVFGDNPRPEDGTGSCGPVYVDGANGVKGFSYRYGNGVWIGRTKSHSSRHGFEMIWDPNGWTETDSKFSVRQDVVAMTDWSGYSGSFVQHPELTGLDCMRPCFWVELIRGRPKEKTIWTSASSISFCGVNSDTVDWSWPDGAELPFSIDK
Test: Viral neuraminidase inhibition assay (NA-Star kit)
Type: biochemical, influenza A/PR/8/34 virus
Details: at 0.1 μg/mL; (Treatment/Virus) × 100, remaining activity
COc1ccc2cc3[n+](cc2c1OCCCCCNc1nc2c(F)cc(F)cc2s1)CCc1cc2c(cc1-3)OCO2 [BBD 11] gave an activity at 0.1 µg/mL of 40.8%.

Same assay, conditions: at 1 μg/mL; (Treatment/Virus) × 100, remaining activity
In the case of COc1ccc2cc3[n+](cc2c1OCCCCCNc1nc2c(F)cc(F)cc2s1)CCc1cc2c(cc1-3)OCO2 [BBD 11], the activity at 1 µg/mL is reported as 33.2%.

Same assay, conditions: at 10 μg/mL; (Treatment/Virus) × 100, remaining activity
With COc1ccc2cc3[n+](cc2c1OCCCCCNc1nc2c(F)cc(F)cc2s1)CCc1cc2c(cc1-3)OCO2 [BBD 11] the activity at 10 µg/mL was 18.4%.

Test system: MDCK cells
Test: not given
Details: dog, 48 h
For COc1ccc2cc3[n+](cc2c1OCCCCCNc1nc2ccc(C(=O)O)cc2s1)CCc1cc2c(cc1-3)OCO2 [BBD 3], the CC50 was 382.9 ± 2.964 µg/mL. For COc1ccc2cc3[n+](cc2c1OCCCCCNc1nc2ccc(I)cc2s1)CCc1cc2c(cc1-3)OCO2 [BBD 9], the CC50 was 302.5 ± 1.771 µg/mL. In the case of COc1ccc2cc3[n+](cc2c1OCCCCCNc1nc2ccc([N+](=O)[O-])cc2s1)CCc1cc2c(cc1-3)OCO2 [BBD 2], the CC50 is reported as 340.5 ± 1.180 µg/mL. In the case of COc1ccc2cc3[n+](cc2c1OCCCCCNc1nc2c(F)cc(F)cc2s1)CCc1cc2c(cc1-3)OCO2 [BBD 11], the CC50 is reported as 467.7 ± 2.647 µg/mL.

Test system: not listed separately
Test: in vitro
Details: dog
COc1ccc2cc3[n+](cc2c1OCCCCCNc1nc2ccc(C(=O)O)cc2s1)CCc1cc2c(cc1-3)OCO2 [BBD 3] showed a CC50 at 48 h of over 100 µg/mL. In the case of COc1ccc2cc3[n+](cc2c1OCCCCCNc1nc2ccc(I)cc2s1)CCc1cc2c(cc1-3)OCO2 [BBD 9], the CC50 at 48 h is reported as over 100 µg/mL. With COc1ccc2cc3[n+](cc2c1OCCCCCNc1nc2ccc([N+](=O)[O-])cc2s1)CCc1cc2c(cc1-3)OCO2 [BBD 2] the CC50 at 48 h was over 100 µg/mL. With COc1ccc2cc3[n+](cc2c1OCCCCCNc1nc2c(F)cc(F)cc2s1)CCc1cc2c(cc1-3)OCO2 [BBD 11] the CC50 at 48 h was over 100 µg/mL.
